Test results published in patent publication US20050169978A1, “Wet-micro grinding” (priority 2004, published 2005).

Assay: AmB content by high performance liquid chromatography during grinding
Format: physicochemical
Settings: ball mill, 210 min overall grinding, HPLC
Description: Samples were taken at a grinding time of 90 minutes, 150 minutes, and 210 minutes, and were designated as LDAB90, LDAB150, and LDAB210, respectively. All samples were stored at 2-8° C. before analyzed. The particle size ranges of the samples were measured using N4 Plus Particle Size Analyzer and the AmB content was measured using high performance liquid chromatography.

C[C@@H]1[C@H](O)[C@@H](C)/C=C/C=C/C=C/C=C/C=C/C=C/C=C/[C@H](O[C@@H]2O[C@H](C)[C@@H](O)[C@H](N)[C@@H]2O)C[C@@H]2O[C@](O)(C[C@@H](O)C[C@@H](O)[C@H](O)CC[C@@H](O)C[C@@H](O)CC(=O)O[C@H]1C)C[C@H](O)[C@H]2C(=O)O [AmB, amphotericin B]
stability of AmB (AmB content) during grinding: remained stable during the whole period of the grinding process
